Test results published in patent US8563027B2, “Drug delivery through hydrogel plugs” (Incept, LLC, priority 2009, dated 2013).
In brackets after ≈: the same amount, converted by molar mass. Like-named read-outs stand apart in the source and are kept apart here.

Tests used:
[1] = cited from earlier work
[2] = In vitro release of steroids entrapped in hydrogel compared to free drug in PBS; format: physicochemical; conditions: 9% 4a20KSG hydrogel, FIG. 20
Description: A 9% 4a20KSG hydrogel was prepared incorporating three different steroids (flunisolide, budesonide, and triamcinolone acetonide).

For `Cc1ccc(-c2cc(C(F)(F)F)nn2-c2ccc(S(N)(=O)=O)cc2)cc1` [Celecoxib], the Solubility [1] is listed as 0.005 mg/mL (≈ 13.1 µM).

For `O=C(O)c1cc(-c2ccc(F)cc2F)ccc1O` [Diflunisal], the Solubility ([1]; pH 7) is given as 3.43 mg/ml @ pH 7.

For `CCc1cccc2c3c([nH]c12)C(CC)(CC(=O)O)OCC3` (stereo not shown) [Etodolac], the Solubility ([1]; in water) is listed as “Insoluble in water”.

For `CC(C(=O)[O][Ca][O]C(=O)C(C)c1cccc(Oc2ccccc2)c1)c1cccc(Oc2ccccc2)c1` (stereo not shown) [Fenoprofen Calcium], the Solubility ([1]; in water) is given as “Slightly soluble in water”.

In the case of `CC(C(=O)O)c1ccc(-c2ccccc2)c(F)c1` (stereo not shown) [Flurbiprofen], the Solubility [1] is listed as 0.9 mg/mL (≈ 3680 µM).

In the case of `CC(C)Cc1ccc(C(C)C(=O)O)cc1` (stereo not shown) [Ibuprofen], the Solubility ([1]; pH 7) is given as 10 mg/ml @ pH 7.

For `COc1ccc2c(c1)c(CC(=O)O)c(C)n2C(=O)c1ccc(Cl)cc1` [Indomethacin], the Solubility ([1]; pH 7, Form I) is listed as 0.54 mg/mL (≈ 1510 µM) and the Solubility ([1]; pH 7, Form II) is listed as 0.80 mg/mL (≈ 2240 µM).

In the case of `O=C(c1ccccc1)c1ccc2n1CCC2C(=O)O` (stereo not shown) [Ketorolac], the Solubility ([1]; in IPB) is given as 10.5 mg/mL (≈ 41100 µM).

In the case of `CC(C)OC(=O)CCC/C=C\C[C@@H]1[C@@H](CC[C@@H](O)CCc2ccccc2)[C@H](O)C[C@@H]1O` [Latanoprost], the “Solubility in aqueous solutions” value [1] is listed as “relatively low solubility”.

In the case of `Cc1ccc(Cl)c(Nc2ccccc2C(=O)[O-])c1Cl.[Na+]` [Meclofenamate sodium], the Solubility ([1]; pH 7.2) is listed as <50 μg/mL @ pH 7.2 50 mg/mL @ pH 9.0 and the Solubility ([1]; pH 9.0) is listed as <50 μg/mL @ pH 7.2 50 mg/mL @ pH 9.0.

For `Cc1cccc(Nc2ccccc2C(=O)[O-])c1C.[Na+]` [Mefanamic Acid], the Solubility ([1]; pH 7.1) is given as 40 μg/ml @ pH 7.1.

For `COc1c(N2C[C@@H]3CCCN[C@@H]3C2)c(F)cc2c(=O)c(C(=O)O)cn(C3CC3)c12` [Moxifloxacin], the “Solubility in aqueous solutions” value [1] is listed as “readily soluble”.

For `NC(=O)Cc1cccc(C(=O)c2ccccc2)c1N` [Nepafenac], the Solubility [1] is listed as <1 mg/ml (The drug is available as 0.1% suspension).

For `CC1(C)O[C@@H]2C[C@H]3[C@@H]4C[C@H](F)C5=CC(=O)C=C[C@]5(C)[C@H]4[C@@H](O)C[C@]3(C)[C@]2(C(=O)CO)O1` [flunisolide], the “Release profile in hydrogel compared to free drug in PBS” value [2] was “slower more sustained drug release profile”.
